Measured values from PubChem BioAssay (NCI).
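All cell lines were grown in 96-well plates and treated with compound for 48 hours. At the TGI there is no net growth.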

tested on: M14 melanoma; test: growth of human tumour cells (NCI), 48 h

SMILES | TGI
COCC(N=CN1CCCc2ccccc2[C@@H]1CCCCl)C(C)(C)C (some centres not stated) | 18.3 µM
CNc1c2cccc(C)c2nc2c(C(=O)NCCN(C)C)cccc12 | 0.887 µM
O=C1CC(NC(=O)C(F)(F)F)c2c1csc2Br (configuration not stated) | > 100 µM
C[C@]12C[C@H](c3ccccc3)Nc3ccccc3N1C(c1ccccc1)=NO2 | > 100 µM
CC[C@](O)(CC(=O)O[C@H]1C(=O)O[C@@H]2C[C@H]3C(C)=CC(=O)[C@@H](O)[C@]3(C)[C@H]3[C@@]4(O)OC[C@]32[C@@H]1[C@@H](C)[C@H]4O)C(C)C | < 0.01 µM
O=C1CC(=O)NC(=NN2C(=O)/C(=C/C(=O)c3ccco3)N=C2c2ccccc2)N1 | > 100 µM

tested on: 786-0 renal; test: growth of human tumour cells (NCI), 48 h

SMILES | TGI
COc1ccc2cc(Oc3ccc(Cl)cc3)c(=O)oc2c1 | > 100 µM
CCN(CC)c1cc2c3c(c1)CCCN3CCC2 | > 10 µM
CC(=O)O[C@H]1CC[C@H]2[C@@H]3CCC4C(C)=NNC(=O)C4[C@H]3CC[C@]12C (some centres not stated) | > 100 µM
O=c1[nH]c(C23CC4CC(CC(C4)C2)C3)cc2c1c(=O)oc1ccccc12 | 3.1 µM
CC1=NN(C(=O)CC(=O)Nc2ccc(C)cc2)C(=O)C1N=Nc1ccc(C(=O)O)cc1 (configuration not stated) | > 100 µM
O=C1C(=O)c2c(oc(=O)c3ccccc23)-c2ccccc21 | > 25 µM
CCOC(=O)C(C(=O)OCC)=C1NC2(c3ccccc3Nc3ccc(C)cc32)C(C#N)S1 (configuration not stated) | 30.1 µM
CN1CCC2(CC1)SC[C@H]1C(=O)N(c3ccc(Cl)cc3)C(=O)N12 | > 100 µM
CC(C)=CCC[C@@H](C)C1=C(O)C(O)C(C)=C2N=C(c3ccccc3)C(=O)OC21 (some centres not stated) | > 20.5 µM
CC(C)(C)[Si](C)(C)O[C@@H](C(=O)OC1C=CCCC1)[C@@H](NC(=O)c1ccccc1)c1ccccc1 (some centres not stated) | > 100 µM
Cc1oc2c(c1C)S(=O)(=O)C(C#N)=C(c1ccccc1)N2 | > 100 µM
CCOC(=O)C1=CN/C(=C(/C)C(=O)OC)SC1C(=O)OCC (configuration not stated) | > 100 µM
Cc1ccc2c(c1)C(=O)/C(=N/Nc1ccc(Cl)cc1)CCO2 | > 100 µM
COc1cc(C2SCC(=O)N2c2ccccc2Cl)cc(OC)c1OC (configuration not stated) | > 100 µM
C=C1C(=O)OC2/C=C(\CO)C3OC3C3OC3(C)CC(OC(=O)/C(=C/C)CO)C12 (configuration not stated) | > 100 µM
COc1ccc2cc(CNCCCCCCCCCCCCNCc3ccc4cc(OC)ccc4c3)ccc2c1 | 30.1 µM
COc1cc(S(=O)(=O)Nc2nc(-c3ccc(N4C(=O)CSC4c4cccs4)cc3)cs2)ccc1Cl (configuration not stated) | > 100 µM
COc1cc(S(=O)(=O)Nc2nc(-c3ccc(N4C(=O)C(CC(=O)O)SC4c4ccccc4O)cc3)cs2)ccc1Cl (configuration not stated) | > 100 µM
N#C/C(=C\c1cn(Cc2ccccc2)c2ccccc12)c1nn(-c2ccccc2)c(N)c1C#N | 21.3 µM
COCC(N=CN1CCCc2ccccc2[C@@H]1CCCCl)C(C)(C)C (some centres not stated) | 28.1 µM
CNc1c2cccc(C)c2nc2c(C(=O)NCCN(C)C)cccc12 | 1.47 µM
O=C1CC(NC(=O)C(F)(F)F)c2c1csc2Br (configuration not stated) | 83.1 µM
C[C@]12C[C@H](c3ccccc3)Nc3ccccc3N1C(c1ccccc1)=NO2 | > 100 µM
CC[C@](O)(CC(=O)O[C@H]1C(=O)O[C@@H]2C[C@H]3C(C)=CC(=O)[C@@H](O)[C@]3(C)[C@H]3[C@@]4(O)OC[C@]32[C@@H]1[C@@H](C)[C@H]4O)C(C)C | < 0.01 µM
O=C1CC(=O)NC(=NN2C(=O)/C(=C/C(=O)c3ccco3)N=C2c2ccccc2)N1 | > 100 µM

tested on: NCI-H522 lung; test: growth of human tumour cells (NCI), 48 h

SMILES | TGI
COc1ccc2cc(Oc3ccc(Cl)cc3)c(=O)oc2c1 | > 100 µM
CCN(CC)c1cc2c3c(c1)CCCN3CCC2 | > 10 µM
CC(=O)O[C@H]1CC[C@H]2[C@@H]3CCC4C(C)=NNC(=O)C4[C@H]3CC[C@]12C (some centres not stated) | > 86.7 µM
O=c1[nH]c(C23CC4CC(CC(C4)C2)C3)cc2c1c(=O)oc1ccccc12 | 11.1 µM
CC1=NN(C(=O)CC(=O)Nc2ccc(C)cc2)C(=O)C1N=Nc1ccc(C(=O)O)cc1 (configuration not stated) | > 100 µM
O=C1C(=O)c2c(oc(=O)c3ccccc23)-c2ccccc21 | > 25 µM
CCOC(=O)C(C(=O)OCC)=C1NC2(c3ccccc3Nc3ccc(C)cc32)C(C#N)S1 (configuration not stated) | 30 µM
CN1CCC2(CC1)SC[C@H]1C(=O)N(c3ccc(Cl)cc3)C(=O)N12 | > 100 µM
CC(C)=CCC[C@@H](C)C1=C(O)C(O)C(C)=C2N=C(c3ccccc3)C(=O)OC21 (some centres not stated) | 1.9 µM
CC(C)(C)[Si](C)(C)O[C@@H](C(=O)OC1C=CCCC1)[C@@H](NC(=O)c1ccccc1)c1ccccc1 (some centres not stated) | 63.6 µM
O=C(Nc1cccc2ccccc12)Nn1cnnc1 | > 100 µM
Cc1oc2c(c1C)S(=O)(=O)C(C#N)=C(c1ccccc1)N2 | > 100 µM
CCOC(=O)C1=CN/C(=C(/C)C(=O)OC)SC1C(=O)OCC (configuration not stated) | > 100 µM
Cc1ccc2c(c1)C(=O)/C(=N/Nc1ccc(Cl)cc1)CCO2 | > 100 µM
COc1cc(C2SCC(=O)N2c2ccccc2Cl)cc(OC)c1OC (configuration not stated) | > 100 µM
C=C1C(=O)OC2/C=C(\CO)C3OC3C3OC3(C)CC(OC(=O)/C(=C/C)CO)C12 (configuration not stated) | 45.6 µM
COc1ccc2cc(CNCCCCCCCCCCCCNCc3ccc4cc(OC)ccc4c3)ccc2c1 | 33.8 µM
COc1cc(S(=O)(=O)Nc2nc(-c3ccc(N4C(=O)CSC4c4cccs4)cc3)cs2)ccc1Cl (configuration not stated) | 83.2 µM
COc1cc(S(=O)(=O)Nc2nc(-c3ccc(N4C(=O)C(CC(=O)O)SC4c4ccccc4O)cc3)cs2)ccc1Cl (configuration not stated) | > 100 µM
N#C/C(=C\c1cn(Cc2ccccc2)c2ccccc12)c1nn(-c2ccccc2)c(N)c1C#N | 34.7 µM
COCC(N=CN1CCCc2ccccc2[C@@H]1CCCCl)C(C)(C)C (some centres not stated) | 21.1 µM
CNc1c2cccc(C)c2nc2c(C(=O)NCCN(C)C)cccc12 | 0.109 µM
O=C1CC(NC(=O)C(F)(F)F)c2c1csc2Br (configuration not stated) | > 100 µM
C[C@]12C[C@H](c3ccccc3)Nc3ccccc3N1C(c1ccccc1)=NO2 | > 100 µM
CC[C@](O)(CC(=O)O[C@H]1C(=O)O[C@@H]2C[C@H]3C(C)=CC(=O)[C@@H](O)[C@]3(C)[C@H]3[C@@]4(O)OC[C@]32[C@@H]1[C@@H](C)[C@H]4O)C(C)C | < 0.01 µM
O=C1CC(=O)NC(=NN2C(=O)/C(=C/C(=O)c3ccco3)N=C2c2ccccc2)N1 | 79.8 µM
